Results taken from ChEMBL document CHEMBL1817623, “Sesterterpenes from the tropical sponge Coscinoderma sp” (J Nat Prod, 2011).
In brackets after ≈: the same amount, converted by molar mass.

Key:
[1] = test system: K562; assay: Cytotoxicity against human K562 cells; format: functional; settings: read-out: LC50 (the source's name)
[2] = target: T1, Sortase A (Staphylococcus aureus, UniProt Q9S446); assay: Inhibition of recombinant Staphylococcus aureus ATCC 6538p sortase lacking the N-terminal membrane anchor domain expressed in Escherichia coli cells TOP10 using Dabcyl-QALPETGEE-Edans substrate measured after 1 hr by fluorescence S13 spectrophotometry
T1 sequence (Q9S446 whole entry): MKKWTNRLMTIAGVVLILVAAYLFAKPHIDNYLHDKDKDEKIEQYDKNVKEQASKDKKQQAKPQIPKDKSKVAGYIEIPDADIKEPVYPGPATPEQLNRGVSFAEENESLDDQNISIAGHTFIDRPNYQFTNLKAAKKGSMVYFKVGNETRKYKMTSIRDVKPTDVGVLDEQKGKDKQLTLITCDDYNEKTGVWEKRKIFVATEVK

[3] = target: Isocitrate lyase (Candida albicans, UniProt Q9P8Q7); assay: Inhibition of Candida albicans isocitrate lyase
Isocitrate lyase, sequence (Q9P8Q7 whole entry): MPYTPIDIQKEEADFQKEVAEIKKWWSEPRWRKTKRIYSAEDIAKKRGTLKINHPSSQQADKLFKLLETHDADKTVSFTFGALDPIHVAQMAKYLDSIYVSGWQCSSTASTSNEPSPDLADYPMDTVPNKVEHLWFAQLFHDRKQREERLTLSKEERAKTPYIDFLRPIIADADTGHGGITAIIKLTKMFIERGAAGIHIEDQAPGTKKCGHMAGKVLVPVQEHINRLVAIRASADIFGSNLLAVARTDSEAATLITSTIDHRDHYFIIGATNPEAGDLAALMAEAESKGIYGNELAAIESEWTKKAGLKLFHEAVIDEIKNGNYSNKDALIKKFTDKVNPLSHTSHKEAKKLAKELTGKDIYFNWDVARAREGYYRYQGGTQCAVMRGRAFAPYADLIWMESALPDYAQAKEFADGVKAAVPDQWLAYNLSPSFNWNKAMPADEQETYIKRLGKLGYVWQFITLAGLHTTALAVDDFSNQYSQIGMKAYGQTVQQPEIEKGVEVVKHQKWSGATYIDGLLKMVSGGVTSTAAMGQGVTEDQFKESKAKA

[4] = target: Sodium/potassium-transporting ATPase; assay: Inhibition of human Na(+)/K(+) ATPase assessed as reduction in ouabain-sensitive and K(+)-dependent cleavage of fluorescent pseudosubstrate 3-O-methylfluorescein phosphate by fluorometric method; format: protein-complex assay
[5] = test system: Staphylococcus aureus; assay: Antimicrobial activity against Staphylococcus aureus ATCC 6538p; format: functional
[6] = test system: Bacillus subtilis; assay: Antimicrobial activity against Bacillus subtilis ATCC 6633; format: functional
[7] = test system: Micrococcus luteus; assay: Antimicrobial activity against Micrococcus luteus IFO 12708; format: functional
[8] = test system: Salmonella typhimurium; assay: Antimicrobial activity against Salmonella Typhimurium ATCC 14028; format: functional, Salmonella enterica subsp. enterica serovar Typhimurium; settings: Salmonella enterica
[9] = test system: Proteus vulgaris; assay: Antimicrobial activity against Proteus vulgaris ATCC 3851; format: functional
[10] = test system: Escherichia coli; assay: Antimicrobial activity against Escherichia coli ATCC 35270; format: functional
[11] = test system: Aspergillus fumigatus; assay: Antimicrobial activity against Aspergillus fumigatus HIC 6094; format: functional
[12] = test system: Trichophyton rubrum; assay: Antimicrobial activity against Trichophyton rubrum IFO 9185; format: functional
[13] = test system: Trichophyton mentagrophytes; assay: Antimicrobial activity against Trichophyton mentagrophytes IFO 40996; format: functional
[14] = test system: Candida albicans; assay: Antimicrobial activity against Candida albicans ATCC 10231; format: functional

Row | Compound | CC50 [1] [µM] | IC50 [2] [µM] | IC50 [3] [µM] | IC50 [4] [µM] | MIC [5] [µg/mL] | MIC [6] [µg/mL] | MIC [7] [µg/mL] | MIC [8] [µg/mL] | MIC [9] [µg/mL] | MIC [10] [µg/mL] | MIC [11] [µg/mL] | MIC [12] [µg/mL] | MIC [13] [µg/mL] | MIC [14] [µg/mL]
1 | CC1(C)CCC[C@]2(C)[C@H]3CC/C(=C\OS(=O)(=O)[O-])[C@H](CCC4=CCNC4=O)[C@@]3(C)CC[C@@H]12.[Na+] | 22 | > 200 | 62 | 18 | > 100 | > 100 | > 100 | > 100 | > 100 | > 100 | > 100 | > 100 | > 100 | > 100
2 | C[C@@H]1[C@H](O)[C@@H](C)/C=C/C=C/C=C/C=C/C=C/C=C/C=C/[C@H](O[C@@H]2O[C@H](C)[C@@H](O)[C@H](N)[C@@H]2O)C[C@@H]2O[C@](O)(C[C@@H](O)C[C@@H](O)[C@H](O)CC[C@@H](O)C[C@@H](O)CC(=O)O[C@H]1C)C[C@H](O)[C@H]2C(=O)O [AMPHOTERICIN B] |  |  |  |  |  |  |  |  |  |  | 3.13 (≈ 3.39 µM) | 3.13 (≈ 3.39 µM) | 3.13 (≈ 3.39 µM) | 0.78 (≈ 0.844 µM)
3 | CO[C@@H]1O[C@H](OC)[C@](O)(CC[C@H]2/C(=C/OS(=O)(=O)[O-])CC[C@H]3[C@]2(C)CC[C@H]2C(C)(C)CCC[C@]32C)[C@H]1O.[Na+] | 15 | > 200 | 75 | 6 | > 100 | > 100 | > 100 | > 100 | > 100 | > 100 | > 100 | > 100 | > 100 | > 100
4 | CC1=CCC[C@@H](C)[C@]1(C)CC/C(C)=C/CCC(CCCc1ccoc1)COS(=O)(=O)[O-].[Na+] (stereo not given in full) [HALISULFATE 2] | > 200 | > 200 | 24 | 5 | > 100 | 6.25 | > 100 | > 100 | 25 | > 100 | > 100 | > 100 | > 100 | > 100
5 | CC1=CC[C@H]2C(C)(C)CCC[C@]2(C)[C@H]1C/C=C(\C)CCC/C(C)=C/Cc1cc(O)ccc1O | 8 | > 200 | > 200 | 117 | > 100 | > 100 | > 100 | > 100 | > 100 | > 100 | > 100 | > 100 | > 100 | > 100
6 | CC1(C)S[C@@H]2[C@H](NC(=O)[C@H](N)c3ccccc3)C(=O)N2[C@H]1C(=O)O [AMPICILLIN] |  |  |  |  | 1.56 (≈ 4.46 µM) | 0.39 (≈ 1.12 µM) | 0.39 (≈ 1.12 µM) | 0.39 (≈ 1.12 µM) | 0.39 (≈ 1.12 µM) | 6.25 (≈ 17.9 µM) |  |  |  | 
7 | CC1(C)CCC[C@]2(C)[C@H]3CC/C(=C\OS(=O)(=O)[O-])[C@H](CCC4=CC(=O)OC4)[C@@]3(C)CC[C@@H]12.[Na+] | 56 | > 200 | 150 | 19 | > 100 | > 100 | > 100 | > 100 | > 100 | > 100 | > 100 | > 100 | > 100 | > 100
8 | O=C(O)CC[N+](=O)[O-] |  |  | 9 |  |  |  |  |  |  |  |  |  |  | 
9 | CO[C@@H]1C=C(CC[C@H]2/C(=C/OS(=O)(=O)[O-])CC[C@H]3[C@]2(C)CC[C@H]2C(C)(C)CCC[C@]32C)C(=O)O1.[Na+] | 16 | > 200 | 64 | 6 | > 100 | > 100 | > 100 | > 100 | > 100 | > 100 | > 100 | > 100 | > 100 | > 100
